One experiment concerns E. acervulina. In words: Example 8: lesion score and OPG, E. acervulina. It counts as in vivo, Cobb 500 male chicks. The conditions noted are these: Composition 250 ppm, Salinomycin 66 ppm, alone or combined. The source says:
(§1) On Days 18, 28, and 35, three birds per pen were sacrificed and coccidial lesion scored for degree of E. acervulina, E. maxima and E. tenella infection (Examples 6 and 7). The system of Johnson and Reid (1970) wherein 0 is normal and 1, 2, 3, or 4 indicate increasing severity of infection were used for lesion scoring. In Example 8, three birds per pen were sacrificed on days […] and coccidial lesion scored for degree of E. acervulina, E. maxima and E. tenella infection. The system of Johnson and Reid (1970) wherein 0 is normal and 1, 2, 3, or 4 indicate increasing severity of infection were used for lesion scoring.
On Days 18 and 28 fresh fecal samples were collected from each pen (Examples 6 and 7). On Days 18 and 28, fresh fecal samples were collected from each pen (Example 8). These representative samples were tested to determine the degree of oocysts shedding/cycling. Oocysts per gram were determined for each sample.
In this example, the ability of exemplary compositions to improve bird performance under challenge conditions was determined. In some embodiments, an exemplary composition was administered alone and in other embodiments, it was administered in combination with Salinomycin. In some embodiments, the birds were not fed any additives (that is, neither the composition nor Salinomycin) and in other embodiments the birds were solely fed Salinomycin. The birds used in this example were exposed to ionophore tolerant coccidia in the litter of all pens, beginning from day of age. […] The results from this example further illustrate that the disclosed compositions and combinations are effective to better control coccidia that are partially resistant to ionophores.

In experiment [1] the test system is ionophore tolerant coccidia. In words: Example 8 floor pen study, ionophore tolerant coccidia in the litter: performance, mortality, total lesion score, total OPG. Format: in vivo, Cobb 500 male chicks.
From the text: In the embodiments described below in Examples 6-8, the following conditions and methods were utilized. The test house was divided into pens of equal size, arranged along a central aisle. Subtracting out for equipment, the initial bird density was ˜0.84 square ft/bird. Each pen had 5 feet high side walls with bottom 1½ feet being of solid wood to prevent bird migration. All flooring of each pen had approximately 4 inches of built-up litter.
The temperature of the building was monitored. Environmental conditions during the trial (temperature) were appropriate (optimum) to the age of the animals Illumination was provided by fluorescent bulbs placed above the pens. The lighting scheme was 24 hours of light per day.
The diets were provided ad libitum in one tube-type feeder per pen. From day 1 until day 7, feed will also be supplied on a tray placed directly on the litter of each pen.
Standard floor pen management practices were used throughout the experiment. Animals and housing facilities were inspected twice daily, observing and recording the general health status, constant feed and water supply as well as temperature, removing all dead birds, and recognizing unexpected events.
All feeds were fed as crumbles/pellets. Quantities of all basal feed and test articles used to prepare treatment batches were documented. Each batch of feed was mixed and bagged separately. Each bag was identified with the study number, date of mix, type of feed, and the correct treatment number. Complete records of feed mixing, and test article inventories were maintained. A sample from the beginning, middle, and end of each treatment feed were mixed to form a composite sample. This sample of each treatment was retained until study end. All feed was weighed by pen. Starter feed was fed from Day 0 to 18. On Day 18, non-consumed starter was weighed and discarded. Grower feed was issued and fed until Day 28. On Day 28, non-consumed grower was weighed and discarded. Finisher feed was issued and fed until Day 42. On Day 42, non-consumed finisher was weighed and discarded.
Day of hatch male chicks were obtained from Cobb-Vantress hatchery, Cleveland, Ga. The strain was Cobb 500. Breeder flock was recorded. 1760 chicks were allocated to the study. At the hatchery, the birds received routine vaccinations. The birds were sexed at the hatchery. In Example 7, all chicks were spray vaccinated with conventional doses of Coccivac-B. Only healthy appearing chicks were used in the study. In examples 6 and 7, fifty-five males were allocated to each treatment pen by blocks. In example 8, fifty-two males were allocated to each treatment pen by blocks. No birds were replaced during the course of the study. Number and disposition of all birds not used for allocation were documented. Bird weights (kg) by pen were recorded at study initiation, Day 18, 28, and termination (Day 42).
as §1
On Days 18 and 28 fresh fecal samples were collected from each pen (Examples 6 and 7). […] These representative samples were tested to determine the degree of oocysts shedding/cycling. Oocysts per gram were determined for each sample.
In this example, the ability of exemplary compositions to improve bird performance under challenge conditions was determined. […]

The mark [2] stands for this setting: Day 18, Composition 250 ppm, Salinomycin 66 ppm, alone or combined.
Setting [3] is: Day 28, Composition 250 ppm, Salinomycin 66 ppm, alone or combined.
Where [4] appears, read: Day 42, Composition 250 ppm, Salinomycin 66 ppm, alone or combined.

Here are results for one molecule from patent US10413581B2, “Combination, composition, and method of administering the combination or composition to animals” (Phibro Animal Health Corporation, priority 2014, dated 2019).

Each structure is given as a SMILES string.

In the case of `CC[C@@H](C(=O)[C@@H](C)[C@@H](O)[C@H](C)[C@@H]1O[C@@H]([C@@H](CC)C(=O)O)CC[C@@H]1C)[C@H]1O[C@]2(C=C[C@@H](O)[C@]3(CC[C@@](C)([C@H]4CC[C@](O)(CC)[C@H](C)O4)O3)O2)[C@H](C)C[C@@H]1C` [Salinomycin], in the experiment with E. acervulina (Day 18), the “Lesion Scores E.A.” value worked out at 1.3a. In the experiment on E. acervulina (Day 21), the “OPG E.A.” value turned out to be 2915bc oocysts per gram. Further, in the experiment with E. acervulina (Day 28), the “Lesion Scores E.A.” value is on record as 1.2ab and the “OPG E.A.” value came to 3819b oocysts per gram. In addition, in experiment [1] (setting [2]), the “Adj. FCR” value was 1.420ab, the “Feed Intake” value stood at 24.76a, the “Lesion Scores Total” value came to 0.8b and the “Wt. Gain” value was determined as 0.294a kg. Moreover, the “OPG Total” value in experiment [1] (Day 21, Composition 250 ppm, Salinomycin 66 ppm, alone or combined) worked out at 10352b oocysts per gram. Moreover, in experiment [1] (setting [3]), the “Adj. FCR” value was 1.619b, the “Feed Intake” value stood at 74.09a, the “Lesion Scores Total” value came to 0.6b and the “OPG Total” value is 7839b oocysts per gram. Further, in experiment [1] (setting [3]), the “Wt. Gain” value is reported as 0.875a kg. Moreover, in experiment [1] (setting [4]), the “Adj. FCR” value turned out to be 1.773bc, the “Feed Intake” value amounted to 175.68a, the Mortality is 6.5a and the “Wt. Gain” value is 2.114a kg. Moreover, the performance result in experiment [1] (day 18, Salinomycin alone) is given as “did not improve performance”.
